This is an account of results in patent US5166155A, “Quinoxaline-2,3-dione compounds and their preparation and use” (Novo Nordisk A/S, priority 1990, dated 1992).

SMILES strings stand for the structures.

For assay [1], the target named is T1, glycine site of the NMDA receptor complex (Rattus norvegicus, UniProt P35439).
T1 construct: thawed rat cerebral cortical membrane homogenate; from tissue; host or cells: rat cerebral cortex, membrane homogenate
Briefly: [3H]-glycine binding (Test 1). Conditions: [3H]-glycine 10 nM, rat cerebral cortical membrane, 0° C., 10 min, pH 7.1. Here is the method:
The glycine site binding activity of these compounds of the present invention can be illustrated by determining their capability for displacing radioactively labelled glycine from the glycine site.
The displacement activity of the compounds may be shown by determining the IC50 value which represents the concentration (μM) which causes a displacement of 50% of the specific binding of [^3 H]-glycine.
1 ml of thawed rat cerebral cortical membrane homogenate in HEPES-Tris (5 mM) and MgCl2 (1 mM) pH 7.1 were incubated at 0° C. for 10 min. with 25 μl [^3 H]-glycine (10 nM final concentration) and the test compound and buffer. Non-specific binding was determined by incubating with D-serine (1 mM final concentration). The binding reaction was terminated by centrifugation at 15,000×g at 4° C. followed by washing of the pellet with three times 3 ml of ice-cold buffer. Bound radioactivity was measured by scintillation counting. IC50 was determined by Hill analysis of at least four concentrations of test compound.

Assay [2] addresses T2, NMDA receptor glycine site (glycine enhanced [3H]-MK-801 binding) (Rattus norvegicus, UniProt P35439).
T2 construct: thawed and extensively washed rat cerebral membrane homogenate; from tissue; host or cells: rat cerebrum, extensively washed membrane homogenate
As to the kind of experiment: Antagonism of glycine enhanced [3H]-MK-801 binding (Test 2). Conditions: Schild analysis; [3H]-MK-801 1 nM, glutamate 300 nM, rat cerebral membrane, 23° C., 60 min, pH 7.40. Here is the method: The glycine antagonism is measured by determining the Ki value which represents the dissociation constant (μM) of the receptor-antagonist complex.
1 ml of thawed and extensively washed rat cerebral membrane homogenate in HEPES-NaOH (20 mM) pH 7.40 were incubated at 23° C. for 60 min. with 25 μl [^3 H]-MK-801 (1 nM final concentration), 25 μl glutamate (300 nM final concentration), test compound in concentrations corresponding to 0, 0.5, 2 and 5 times the IC50 value from the [^3 H]-glycine binding assay (test 1) for each concentration of glycine (10; 100; 1,000; 10,000 and 100,000 nM final concentration). The binding reaction was terminated by adding 5 ml of ice-cold buffer followed by rapid filtration through Whatman GF/C glass fiber filters and 5 ml wash with ice-cold buffer. Bound radioactivity was measured by scintillation counting. Ki values were determined by Schild analysis of the data using
log(dosis ration-1)=log[Inhibitor]-log(Ki).

The test system of assay [3] is NMDA stimulated [3H]-GABA release. As to the kind of experiment: Inhibition of NMDA stimulated [3H]-GABA release from cultured mouse cerebral cortex interneurons (Test 3). It counts as cell-based. Conditions: 3 μg/ml NMDA, 37° C. Here is the method: The NMDA antagonistic properties of the compounds is illustrated by determining their capability to antagonize NMDA stimulated [^3 H]-GABA release from cultured mouse cortex neurons. The NMDA antagonistic activity of the compounds may be shown by determining the IC50 value, which represents the concentration (μM) which inhibits 50% of NMDA induced [^3 H]-GABA release.
Release experiments are performed using the model described by Drejer et al. (Life Sci. 38, 2077 (1986)). To cerebral cortex interneurons cultured in petri dishes (30 mm) are added 100 μg/ml 3-vinyl-GABA one hour before the experiment in order to inhibit degradation of GABA in the neurons. 30 min. before the experiment 5 μCi [^3 H]-GABA is added to each culture and after this preloading period the cells are washed twice with HEPES buffered saline (HBS) containing 10 mM HEPES, 135 mM NaCl, 5 mM KCl, 0.6 mM MgSO4, 1.0 mM CaCl2 and 6 mM D-glucose; pH 7 and placed in a superfusion system. This system consists of a peristaltic pump continuously delivering thermostated 37° C. superfusion medium from a reservoir to the top of a slightly tilted petri dish. The cell monolayer at the bottom of the dish is covered with a piece of nylon mesh to facilitate dispersion of medium over the cell layer. The medium is continuously collected from the lower part of the dish and delivered to a fraction collector. Initially, the cells are superfused with HBS for 15 min. (flow rate 2 ml/min.). Then cells are stimulated for 30 sec. every 4 min. by changing the superfusion medium from HBS to a corresponding medium containing NMDA and antagonist according to the following scheme:
Stimulation no. 1:3 μg/ml NMDA
Stimulation no. 2:3 μg/ml NMDA+0.3 μg/ml antagonist
Stimulation no. 3:3 μg/ml NMDA+3.0 μg/ml antagonist
The release of [^3 H]-GABA in the presence of NMDA is corrected for the mean basal release before and after stimulation. The stimulated release in the presence of antagonist is expressed relative to the stimulated release by NMDA alone and the IC50 value is calculated.

Assay [4] concerns NMDA receptor/ionophor complex, allosteric modulatory (glycine) site. To be noted: literature; cited from earlier work.
For assay [5], the system named is NMDA receptor. Conditions: cited from earlier work.

With `O=C(O)Cn1c(=O)c(=O)[nH]c2cc(Br)ccc21` [Example 3, 6-Bromo-1-carboxymethylquinoxaline-2,3(1H,4H)-dione], the IC50 was found to be 544 nM in assay [1] and 505 nM in assay [3]. Besides, the Ki in assay [2] was determined as 127 nM.
Consider `N[C@H](CO)C(=O)O` [D-serine], for which the “agonist/antagonist activity at the glycine site” value (“agonist/antagonist activity” for short) in assay [4] is recorded as “strong agonist activity”.
`CCCC(C(=O)O)n1c(=O)c(=O)[nH]c2ccccc21` (centres unmarked) [Example 9, 1-((1-Carboxy)butyl)quinoxaline-2,3(1H,4H)-dione]: the IC50 was 5000 nM in assay [1] and 2860 nM in assay [3]. Also, the Ki in assay [2] amounted to 1900 nM.
In turn, `CCCCC(C(=O)O)n1c(=O)c(=O)[nH]c2cc(Cl)c(Cl)cc21` (centres unmarked) [Example 16, 1-((1-carboxy)pentyl)-6,7-dichloroquinoxaline-2,3(1H,4H)-dione] gave an IC50 in assay [1] of 409 nM. Further, the Ki in assay [2] is 100 nM.
Take `NC1CCN(O)C1=O` (centres unmarked) [HA-966, 3-amino-1-hydroxy-2-pyrrolidone]: the “agonist/antagonist activity” value in assay [4] is on record as “weak antagonists”.
`O=C(O)Cn1c(=O)c(=O)[nH]c2cc([N+](=O)[O-])ccc21` [Example 7, 1-Carboxymethyl-6-nitroquinoxaline-2,3(1H,4H)-dione]: in assay [1], the half-maximal inhibitory concentration (IC50) is 2000 nM.
Consider `N[C@@H]1CONC1=O` [D-cycloserine], for which the “agonist/antagonist activity” value in assay [4] is on record as “partial agonists”.
Take `NCC(=O)O` [glycine]: the “glycine site binding affinity” value in assay [4] was “high affinity binding”. Also, the “effect on NMDA receptor agonist induced responses” value in assay [5] is on record as “increase NMDA receptor agonist induced responses”.
As to `O=C(O)Cn1c(=O)c(=O)[nH]c2ccc([N+](=O)[O-])cc21` [Example 19, 1-Carboxymethyl-7-nitroquinoxaline-2,3(1H,4H)-dione], the IC50 in assay [1] stood at 7000 nM.
`O=C(O)Cn1c(=O)c(=O)[nH]c2cc(Br)c(Br)cc21` [Example 12, 1-Carboxymethyl-6,7-dibromoquinoxaline-2,3(1H,4H)-dione]: the IC50 in assay [1] worked out at 849 nM; in assay [3] it was 127 nM. The inhibitory constant (Ki) in assay [2] was 390 nM.
In the case of `N#Cc1cc2[nH]c(=O)c(=O)[nH]c2cc1[N+](=O)[O-]` [CNQX, 6-cyano-7-nitroquinoxaline-2,3-dione], the “agonist/antagonist activity” value in assay [4] was “weak antagonists”.
Consider `CCCCCC(C(=O)O)n1c(=O)c(=O)[nH]c2cc(Br)ccc21` (centres unmarked) [Example 15, 1-((1-Carboxy)hexyl)-6-bromoquinoxaline-2,3(1H, 4H)-dione], for which the figures for the IC50 in assay [1] and in assay [3] were 587 nM and 2640 nM, respectively. Moreover, the Ki in assay [2] was determined as 49 nM.
On to `O=C(O)C(c1ccccc1)n1c(=O)c(=O)[nH]c2ccccc21` (centres unmarked) [Example 10, 1-(1-Carboxy-1-phenylmethyl)quinoxaline-2,3(1H,4H)-dione], for which the figures for the half-inhibitory concentration (IC50) in assay [1] and in assay [3] were 8000 nM and 2620 nM, respectively.
As for `O=C(O)Cn1c(=O)c(=O)[nH]c2cc(F)c(F)cc21` [Example 4, 1-Carboxymethyl-6,7-difluoroquinoxaline-2,3(1H,4H)-dione], the IC50 was 500 nM in assay [1] and 328 nM in assay [3]. For the same molecule, the Ki in assay [2] came to 118 nM.
As for `O=C(O)c1cc(O)c2ccc(Cl)cc2n1` [7-chlorokynurenate], in assay [4], the “agonist/antagonist activity” value is “quite strong, but non-selective antagonists of glycine at the glycine site”.
For the molecule `COc1ccc2c(c1)n(O)c(=O)c(=O)n2CC(=O)O` [Example 13, 1-Carboxymethyl-4-hydroxy-6-methoxyquinoxalin-2,3(1H,4H)-dione], the IC50 in assay [1] was 8000 nM; in assay [3] it was greater than 3750 nM.
Regarding `O=C(O)Cn1c(=O)c(=O)[nH]c2cc(Cl)cc(Cl)c21` [Example 22, 1-Carboxymethyl-6,8-dichloroquinoxaline-2,3(1H, 4H)-dione], the half-maximal inhibitory concentration (IC50) in assay [1] amounted to 852 nM.
In the case of `C[C@@H](N)C(=O)O` [D-alanine], in assay [4], the “agonist/antagonist activity” value was “strong agonist activity”.
For `O=C(O)Cn1c(=O)c(=O)[nH]c2cc(Cl)ccc21` [Example 6, 1-Carboxymethyl-6-chloroquinoxaline-2,3(1H,4H)-dione], the half-maximal inhibitory concentration (IC50) in assay [1] was 520 nM; in assay [3], 394 nM. Also, the Ki in assay [2] came to 3400 nM.
Turning to `Cc1cc2[nH]c(=O)c(=O)n(CC(=O)O)c2cc1C` [Example 5, 1-Carboxymethyl-6,7-dimethylquinoxaline-2,3(1H,4H)-dione], the 50% inhibitory concentration (IC50) in assay [1] stood at 554 nM; in assay [3], 509 nM. The Ki in assay [2] worked out at 212 nM.
Molecule `CC(C(=O)O)n1c(=O)c(=O)[nH]c2ccccc21` (centres unmarked) [Example 11, 1-((1-Carboxy)ethyl)quinoxaline-2,3(1H,4H)-dione] came in with an IC50 in assay [1] of 3000 nM. Moreover, in assay [2], the Ki worked out at 900 nM.
As to `CCCCC(C(=O)O)n1c(=O)c(=O)[nH]c2ccccc21` (centres unmarked) [Example 8, 1-((1-Carboxy)pentyl)-quinoxaline-2,3(1H,4H)-dione], the IC50 was 2200 nM in assay [1] and 1880 nM in assay [3]. Further, the Ki in assay [2] amounted to 770 nM.
`O=C1C[C@@H]2OCC=C3CN4CC[C@]56c7ccccc7N1[C@H]5[C@H]2[C@H]3C[C@H]46` [strychnine]: the “sensitivity of the glycine response to strychnine” value in assay [5] (cultured neurons, literature) is “insensitive”.
`O=C(O)Cn1c(=O)c(=O)[nH]c2cc(Cl)c(Cl)cc21` [Example 1, 1-Carboxymethyl-6,7-dichloroquinoxaline-2,3(1H,4H)-dione]: the concentration for half-maximal inhibition (IC50) came out at 350 nM in assay [1] and 163 nM in assay [3]. In addition, in assay [2], the Ki was determined as 162 nM.

One may read the IC50 as the concentration at which inhibition is half-maximal. Read a high IC50 as weaker potency. One may read the Ki as the dissociation constant of the complex between target and ligand, obtained from inhibition or displacement.
